pIC50: −log10 of the molar value.

Sequence of human Plasma Kallikrein (KLKB1) (P03952 391-638): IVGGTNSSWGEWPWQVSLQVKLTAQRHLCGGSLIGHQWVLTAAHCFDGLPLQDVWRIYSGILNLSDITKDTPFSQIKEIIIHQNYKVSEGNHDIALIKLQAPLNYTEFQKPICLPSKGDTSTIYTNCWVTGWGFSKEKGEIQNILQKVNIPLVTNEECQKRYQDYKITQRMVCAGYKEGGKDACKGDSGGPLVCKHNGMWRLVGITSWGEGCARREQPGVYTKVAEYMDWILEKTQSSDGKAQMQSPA
Sequence of human Plasma Kallikrein (KLKB1) (P03952 20-390 partner): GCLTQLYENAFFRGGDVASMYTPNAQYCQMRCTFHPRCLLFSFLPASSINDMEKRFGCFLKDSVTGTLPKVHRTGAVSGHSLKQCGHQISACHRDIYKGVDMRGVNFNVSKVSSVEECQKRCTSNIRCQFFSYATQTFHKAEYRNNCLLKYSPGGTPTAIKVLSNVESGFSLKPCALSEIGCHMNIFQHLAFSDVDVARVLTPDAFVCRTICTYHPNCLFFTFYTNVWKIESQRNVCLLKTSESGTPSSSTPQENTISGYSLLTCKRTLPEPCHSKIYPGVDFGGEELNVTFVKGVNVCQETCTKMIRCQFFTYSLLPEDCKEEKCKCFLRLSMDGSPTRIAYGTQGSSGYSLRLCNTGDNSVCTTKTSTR

The test addresses human Plasma Kallikrein (KLKB1) (Homo sapiens (Human), UniProt P03952). Nature of the test: Inhibition of KLKB1 endpoint assay. It is filed as biochemical. The settings on record: fluorogenic substrate H-Pro-Phe-Arg-AMC, 1 hr at Room Temperature, read-out: IC50 measurements for the inhibition of human Plasma Kallikrein (KLKB1). How it is done:
The ability of compounds of Formula I to inhibit plasma kallikrein (KLKB1), Factor XIIa (FXIIa), Factor XIa (FXIa), Factor Xa (FXa), Factor IIa (alpha-thrombin; FIIa), plasmin, trypsin, tissue kallikrein 1 (KLK1), Factor VIIa (FVIIa), or FVIIa complexed with Tissue Factor, phospholipids and CaCl2 (FVIIa/TF/PL/CaCl2) was determined using the following biochemical assays in assay buffer (100 mM Tris, 150 mM NaCL, adjusted to a pH of 7.8 with HCl, and containing 0.1% (w/v) BSA and 0.05% (v/v) Tween20) in the presence of 1% (v/v) DMSO:
Subsequently, PPACK II (Calbiochem) was added as a stop solution to achieve a final concentration of 1 μM and fluorescence was measured using an Envision Reader (PerkinElmer) with the wavelength excitation setting of 355 nm and the wavelength emission setting of 460 nm.
With `Cc1ccc2cc(Cn3cc(C(=O)NC4CCCc5nc(N)ccc54)nn3)ccc2n1` (stereo not shown) [Example 1, 1-(2-Methyl-quinolin-6-ylmethyl)-1H-[1,2,3]triazole-4-carboxylic acid (2-amino-5,6,7,8-tetrahydro-quinolin-5-yl)-amide], the negative-log IC50 (pIC50) (in general, the IC50 on a negative log10 scale, so that one unit is a factor of ten) was 6.05.

Take `Nc1nccc2c1C(NC(=O)c1cn(Cc3ccc(Cn4cccn4)cc3)nn1)CC2` (stereo not shown) [Example 2, 1-(4-Pyrazol-1-ylmethyl-benzyl)-1H-[1,2,3]triazole-4-carboxylic acid (1-amino-6,7-dihydro-5H-[2]pyrindin-7-yl)-amide]: the pIC50 was 6.22.

As for `Nc1ccc2c(n1)CCC2NC(=O)c1cn(Cc2ccc(C(F)c3ccon3)cc2)nn1` (stereo not shown) [Example 3], the pIC50 was 5.26. Regarding `Nc1cc2c(cn1)C(NC(=O)c1cn(Cc3ccc(Cn4cccn4)cc3)nn1)CC2` (stereo not shown) [Example 4], the pIC50 is 6.10. As to `Nc1ccc2c(n1)CCC2NC(=O)c1cnn(Cc2ccc(Cn3cccn3)cc2)c1` (stereo not shown) [Example 6], the pIC50 was 7.49. To `Cc1ccc2cc(Cn3cc(C(=O)NC4CCc5nc(N)ccc54)nn3)ccc2n1` (stereo not shown) [Example 7] belongs 6.04; to `CC(C)(O)c1cccn(Cc2ccc(Cn3cc(C(=O)NC4CCc5nc(N)ccc54)nn3)cc2)c1=O` (stereo not shown) [Example 9], 6.25.

Consider `C[C@H]1CCN(c2ccc(Cn3cc(C(=O)N[C@@H]4CCc5nc(N)ccc54)c(C(F)(F)F)n3)cn2)C1` [Example 14], for which the pIC50 was 7.40. To `Cc1cnn(Cc2ccc(Cn3cc(C(=O)N[C@@H]4CCc5c4ccnc5N)c(C(F)(F)F)n3)cc2)c1` [Example 15] belongs 9.00; to `Cc1cnn(Cc2ccc(Cn3cc(C(=O)N[C@@H]4CCc5nc(N)ccc54)c(C(F)(F)F)n3)cc2)c1` [Example 16], 7.74.

Source of the values: patent US10399961B2, “Heteroarylcarboxamide derivatives as plasma kallikrein inhibitors” (Boehringer Ingelheim International GmbH, priority 2015, dated 2019).
